Starred links: 1 amine or outer side, 2 acyl side, 3 side chain; linkers in the order of their positions; H or OH if unused. Non-standard residues stand in square brackets, D forms with d. Residues, ends and D or L forms follow the SMILES beside them. Groups on a side chain read outwards from the residue. *: point of attachment. X1 = O=C(O)CCCCCCCCCCCCCCCCCCC(=O)N1CCN(CC(=O)*)CC1; C20 diacid = O=C(O)CCCCCCCCCCCCCCCCCCC(=O)*; γGlu = O=C(O)[C@H](CCC(=O)[*:2])N[*:1]; AEEA = NCCOCCOCC(=O)O; Aib = CC(C)(N)C(=O)O
Legend:
human GIP R = biological target: T1, human GIP R (Homo sapiens, UniProt P48546); test: cell-based
T1 sequence (P48546 22-466): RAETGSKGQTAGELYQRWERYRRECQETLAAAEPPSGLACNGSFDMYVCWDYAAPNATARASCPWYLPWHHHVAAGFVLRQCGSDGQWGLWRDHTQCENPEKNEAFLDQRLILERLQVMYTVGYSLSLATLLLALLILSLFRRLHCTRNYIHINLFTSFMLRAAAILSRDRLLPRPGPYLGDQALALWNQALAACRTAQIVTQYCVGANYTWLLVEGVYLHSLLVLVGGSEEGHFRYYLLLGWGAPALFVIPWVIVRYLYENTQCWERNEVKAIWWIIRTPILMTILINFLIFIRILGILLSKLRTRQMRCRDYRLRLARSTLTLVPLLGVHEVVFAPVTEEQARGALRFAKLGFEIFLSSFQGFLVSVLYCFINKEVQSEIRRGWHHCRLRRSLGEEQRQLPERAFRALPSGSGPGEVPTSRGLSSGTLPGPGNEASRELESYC

[1] = biological target: human GLP-1 receptor (GLP-1R) (Homo sapiens, UniProt P43220); test: Activity assay at human GLP-1 receptor, cAMP induction (AlphaScreen), Example 3
Chain of human GLP-1 receptor (GLP-1R) (P43220 24-463): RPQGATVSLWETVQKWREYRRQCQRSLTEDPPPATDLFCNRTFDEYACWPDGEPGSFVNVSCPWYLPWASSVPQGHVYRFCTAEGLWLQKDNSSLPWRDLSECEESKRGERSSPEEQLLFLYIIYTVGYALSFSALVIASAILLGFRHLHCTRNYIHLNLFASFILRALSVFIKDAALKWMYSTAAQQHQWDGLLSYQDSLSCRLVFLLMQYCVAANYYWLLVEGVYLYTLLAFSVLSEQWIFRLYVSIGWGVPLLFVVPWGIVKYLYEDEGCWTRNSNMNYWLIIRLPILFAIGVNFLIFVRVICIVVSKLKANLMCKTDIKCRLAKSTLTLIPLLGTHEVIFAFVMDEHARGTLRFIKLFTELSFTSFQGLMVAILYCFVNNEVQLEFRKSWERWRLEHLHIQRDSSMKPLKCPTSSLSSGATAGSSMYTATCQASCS

[2] = biological target: T2, human GIP receptor (GIP R) (Homo sapiens, UniProt P48546); test: Activity assay at human GIP receptor, cAMP induction (AlphaScreen), Example 3
T2 sequence (P48546 22-466): T1 sequence (P48546 22-466)

Compound | EC50 (human GIP R) [pM] | EC50 [1] [pM] | EC50 [2] [pM]
CC[C@H](C)[C@H](NC(=O)[C@H](CO)NC(=O)[C@H](Cc1ccc(O)cc1)NC(=O)[C@H](CC(=O)O)NC(=O)[C@H](CO)NC(=O)[C@@H](NC(=O)[C@H](Cc1ccccc1)NC(=O)[C@@H](NC(=O)CNC(=O)[C@H](CCC(=O)O)NC(=O)C(C)(C)NC(=O)[C@@H](N)Cc1ccc(O)cc1)[C@@H](C)O)[C@@H](C)CC)C(=O)N[C@@H](CCC(=O)O)C(=O)N[C@@H](CC(C)C)C(=O)N[C@@H](CC(=O)O)C(=O)N[C@@H](CCCCN)C(=O)N[C@@H](CCCCNC(=O)COCCOCCNC(=O)COCCOCCNC(=O)CC[C@H](NC(=O)CCCCCCCCCCCCCCCCCCC(=O)O)C(=O)O)C(=O)N[C@@H](Cc1c[nH]cn1)C(=O)N[C@@H](CCC(N)=O)C(=O)N[C@@H](CCC(N)=O)C(=O)N[C@@H](CC(=O)O)C(=O)N[C@@H](Cc1ccccc1)C(=O)N[C@H](C(=O)N[C@@H](CC(N)=O)C(=O)N[C@@H](Cc1ccc(O)cc1)C(=O)N[C@@H](CC(C)C)C(=O)N[C@@H](CC(C)C)C(=O)N[C@@H](C)C(=O)N[C@@H](CCC(N)=O)C(=O)NCC(=O)N1CCC[C@H]1C(=O)N[C@@H](CO)C(=O)N[C@@H](CO)C(=O)NCC(=O)N[C@@H](C)C(=O)N1CCC[C@H]1C(=O)N1CCC[C@H]1C(=O)N1CCC[C@H]1C(=O)N[C@@H](CO)C(N)=O)C(C)C [Compound 8] (H-Y[Aib]EGTFISDYSIELDKK([AEEA-AEEA-γGlu-C20 diacid])HQQDFVNYLLAQGPSSGAPPPS-NH2) | 9 | > 10000 | 
CC[C@H](C)[C@H](NC(=O)[C@H](Cc1ccccc1)NC(=O)[C@H](C)NC(=O)[C@H](CCCNC(=N)N)NC(=O)[C@H](CCC(N)=O)NC(=O)[C@H](C)NC(=O)[C@H](CCCCNC(=O)COCCOCCNC(=O)COCCOCCNC(=O)CN1CCN(C(=O)CCCCCCCCCCCCCCCCCCC(=O)O)CC1)NC(=O)[C@H](CCCCN)NC(=O)[C@H](CC(=O)O)NC(=O)[C@H](CC(C)C)NC(=O)[C@H](CCC(=O)O)NC(=O)[C@@H](NC(=O)[C@H](CO)NC(=O)[C@H](Cc1ccc(O)cc1)NC(=O)[C@H](CC(=O)O)NC(=O)[C@H](CO)NC(=O)[C@@H](NC(=O)[C@H](Cc1ccccc1)NC(=O)[C@@H](NC(=O)CNC(=O)[C@H](CCC(=O)O)NC(=O)C(C)(C)NC(=O)[C@@H](N)Cc1ccc(O)cc1)[C@@H](C)O)[C@@H](C)CC)[C@@H](C)CC)C(=O)N[C@@H](CCC(=O)O)C(=O)N[C@@H](Cc1c[nH]c2ccccc12)C(=O)N[C@@H](CC(C)C)C(=O)N[C@@H](CC(C)C)C(=O)N[C@@H](C)C(=O)N[C@@H](CCC(N)=O)C(=O)NCC(=O)N1CCC[C@H]1C(=O)N[C@@H](CO)C(=O)N[C@@H](CO)C(=O)NCC(=O)N[C@@H](C)C(=O)N1CCC[C@H]1C(=O)N1CCC[C@H]1C(=O)N1CCC[C@H]1C(=O)N[C@@H](CO)C(N)=O [Compound 19] (H-Y[Aib]EGTFISDYSIELDKK([AEEA-AEEA-X1])AQRAFIEWLLAQGPSSGAPPPS-NH2) | 6 | > 3000 | 5
CC[C@H](C)[C@H](NC(=O)[C@H](Cc1ccccc1)NC(=O)[C@H](CC(=O)O)NC(=O)[C@H](CCC(N)=O)NC(=O)[C@H](C)NC(=O)[C@H](C)NC(=O)[C@H](CCCCNC(=O)COCCOCCNC(=O)COCCOCCNC(=O)CC[C@H](NC(=O)CCCCCCCCCCCCCCCCCCC(=O)O)C(=O)O)NC(=O)[C@H](CCCCN)NC(=O)[C@H](CC(=O)O)NC(=O)[C@H](CC(C)C)NC(=O)[C@H](CCC(=O)O)NC(=O)[C@@H](NC(=O)[C@H](CO)NC(=O)[C@H](Cc1ccc(O)cc1)NC(=O)[C@H](CC(=O)O)NC(=O)[C@H](CO)NC(=O)[C@@H](NC(=O)[C@H](Cc1ccccc1)NC(=O)[C@@H](NC(=O)CNC(=O)[C@H](CCC(=O)O)NC(=O)C(C)(C)NC(=O)[C@@H](N)Cc1ccc(O)cc1)[C@@H](C)O)[C@@H](C)CC)[C@@H](C)CC)C(=O)N[C@@H](CC(N)=O)C(=O)N[C@@H](Cc1c[nH]c2ccccc12)C(=O)N[C@@H](CC(C)C)C(=O)N[C@@H](CC(C)C)C(=O)N[C@@H](C)C(=O)N[C@@H](CCC(N)=O)C(=O)NCC(=O)N1CCC[C@H]1C(=O)N[C@@H](CO)C(=O)N[C@@H](CO)C(=O)NCC(=O)N[C@@H](C)C(=O)N1CCC[C@H]1C(=O)N1CCC[C@H]1C(=O)N1CCC[C@H]1C(=O)N[C@@H](CO)C(N)=O [Compound 39] (H-Y[Aib]EGTFISDYSIELDKK([AEEA-AEEA-γGlu-C20 diacid])AAQDFINWLLAQGPSSGAPPPS-NH2) | 7 | > 100000 | 1
CC[C@H](C)[C@H](NC(=O)[C@H](CO)NC(=O)[C@H](Cc1ccc(O)cc1)NC(=O)[C@H](CC(=O)O)NC(=O)[C@H](CO)NC(=O)[C@@H](NC(=O)[C@H](Cc1ccccc1)NC(=O)[C@@H](NC(=O)CNC(=O)[C@H](CCC(=O)O)NC(=O)C(C)(C)NC(=O)[C@@H](N)Cc1ccc(O)cc1)[C@@H](C)O)[C@@H](C)CC)C(=O)N[C@@H](CCC(=O)O)C(=O)N[C@@H](CC(C)C)C(=O)N[C@@H](CC(=O)O)C(=O)N[C@@H](CCCCN)C(=O)N[C@@H](CCCCNC(=O)COCCOCCNC(=O)COCCOCCNC(=O)CN1CCN(C(=O)CCCCCCCCCCCCCCCCCCC(=O)O)CC1)C(=O)N[C@@H](C)C(=O)N[C@@H](CCC(N)=O)C(=O)N[C@@H](CCCNC(=N)N)C(=O)N[C@@H](C)C(=O)N[C@@H](Cc1ccccc1)C(=O)N[C@H](C(=O)N[C@@H](CCC(=O)O)C(=O)N[C@@H](Cc1c[nH]c2ccccc12)C(=O)N[C@@H](CC(C)C)C(=O)N[C@@H](CC(C)C)C(=O)N[C@@H](C)C(=O)N[C@@H](CCC(N)=O)C(=O)NCC(=O)N1CCC[C@H]1C(=O)N[C@@H](CO)C(=O)N[C@@H](CO)C(=O)NCC(=O)N[C@@H](C)C(=O)N1CCC[C@H]1C(=O)N1CCC[C@H]1C(=O)N1CCC[C@H]1C(=O)N[C@@H](CO)C(N)=O)C(C)C [Compound 20] (H-Y[Aib]EGTFISDYSIELDKK([AEEA-AEEA-X1])AQRAFVEWLLAQGPSSGAPPPS-NH2) | 7 | > 3000 | 6
CC[C@H](C)[C@H](NC(=O)[C@H](CCCCN)NC(=O)[C@H](CC(=O)O)NC(=O)[C@H](CC(C)C)NC(=O)[C@H](CCC(=O)O)NC(=O)[C@@H](NC(=O)[C@H](CO)NC(=O)[C@H](Cc1ccc(O)cc1)NC(=O)[C@H](CC(=O)O)NC(=O)[C@H](CO)NC(=O)[C@@H](NC(=O)[C@H](Cc1ccccc1)NC(=O)[C@@H](NC(=O)CNC(=O)[C@H](CCC(=O)O)NC(=O)C(C)(C)NC(=O)[C@@H](N)Cc1ccc(O)cc1)[C@@H](C)O)[C@@H](C)CC)[C@@H](C)CC)C(=O)N[C@@H](C)C(=O)N[C@@H](C)C(=O)N[C@@H](CCC(N)=O)C(=O)N[C@@H](CC(=O)O)C(=O)N[C@@H](Cc1ccccc1)C(=O)N[C@H](C(=O)N[C@@H](CCC(=O)O)C(=O)N[C@@H](Cc1c[nH]c2ccccc12)C(=O)N[C@@H](CC(C)C)C(=O)N[C@@H](CC(C)C)C(=O)N[C@@H](C)C(=O)NCC(=O)N1CCC[C@H]1C(=O)N[C@@H](CO)C(=O)N[C@@H](CO)C(=O)NCC(=O)N[C@@H](C)C(=O)N1CCC[C@H]1C(=O)N1CCC[C@H]1C(=O)N1CCC[C@H]1C(=O)N[C@@H](CO)C(=O)N[C@@H](CCCCNC(=O)COCCOCCNC(=O)COCCOCCNC(=O)CN1CCN(C(=O)CCCCCCCCCCCCCCCCCCC(=O)O)CC1)C(N)=O)[C@@H](C)CC [Compound 26] (H-Y[Aib]EGTFISDYSIELDKIAAQDFIEWLLAGPSSGAPPPSK([AEEA-AEEA-X1])-NH2) | 17 | > 10000 | 32
CC[C@H](C)[C@H](NC(=O)[C@H](CCCCN)NC(=O)[C@H](CC(=O)O)NC(=O)[C@H](CC(C)C)NC(=O)[C@H](CCC(=O)O)NC(=O)[C@@H](NC(=O)[C@H](CO)NC(=O)[C@H](Cc1ccc(O)cc1)NC(=O)[C@H](CC(=O)O)NC(=O)[C@H](CO)NC(=O)[C@@H](NC(=O)[C@H](Cc1ccccc1)NC(=O)[C@@H](NC(=O)CNC(=O)[C@H](CCC(=O)O)NC(=O)C(C)(C)NC(=O)[C@@H](N)Cc1ccc(O)cc1)[C@@H](C)O)[C@@H](C)CC)[C@@H](C)CC)C(=O)N[C@@H](C)C(=O)N[C@@H](CCC(N)=O)C(=O)N[C@@H](CCCNC(=N)N)C(=O)N[C@@H](C)C(=O)N[C@@H](Cc1ccccc1)C(=O)N[C@H](C(=O)N[C@@H](CCC(=O)O)C(=O)N[C@@H](Cc1c[nH]c2ccccc12)C(=O)N[C@@H](CC(C)C)C(=O)N[C@@H](CC(C)C)C(=O)N[C@@H](C)C(=O)N[C@@H](CCC(N)=O)C(=O)NCC(=O)N1CCC[C@H]1C(=O)N[C@@H](CO)C(=O)N[C@@H](CO)C(=O)NCC(=O)N[C@@H](C)C(=O)N1CCC[C@H]1C(=O)N1CCC[C@H]1C(=O)N1CCC[C@H]1C(=O)N[C@@H](CO)C(=O)N[C@@H](CCCCNC(=O)COCCOCCNC(=O)COCCOCCNC(=O)CC[C@H](NC(=O)CCCCCCCCCCCCCCCCCCC(=O)O)C(=O)O)C(N)=O)[C@@H](C)CC [Compound 28] (H-Y[Aib]EGTFISDYSIELDKIAQRAFIEWLLAQGPSSGAPPPSK([AEEA-AEEA-γGlu-C20 diacid])-NH2) | 7 | > 3000 | 13
